Some results are limits rather than exact numbers.

Chain of GST tagged IRAK-4 (Q9NWZ3 whole entry): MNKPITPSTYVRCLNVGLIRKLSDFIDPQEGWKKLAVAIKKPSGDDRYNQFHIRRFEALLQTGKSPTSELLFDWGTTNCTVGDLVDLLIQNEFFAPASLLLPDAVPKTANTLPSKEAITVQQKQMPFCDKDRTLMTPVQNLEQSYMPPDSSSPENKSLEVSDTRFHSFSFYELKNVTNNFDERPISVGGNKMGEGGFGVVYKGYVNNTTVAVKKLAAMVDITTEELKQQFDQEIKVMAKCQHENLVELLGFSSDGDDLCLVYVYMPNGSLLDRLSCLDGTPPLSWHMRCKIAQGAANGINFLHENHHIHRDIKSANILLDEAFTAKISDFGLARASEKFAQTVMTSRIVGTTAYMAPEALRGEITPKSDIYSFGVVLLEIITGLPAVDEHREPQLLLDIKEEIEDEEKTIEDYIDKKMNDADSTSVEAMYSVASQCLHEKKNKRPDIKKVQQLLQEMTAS

The first test addresses GST tagged IRAK-4 (Homo sapiens (Human), UniProt Q9NWZ3). In words: IRAK-4 Kinase Assay (IMAP fluorescence polarization). Particulars: 100 μM ATP, 30 minutes at 25° C. It counts as biochemical. The procedure, abridged:
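Activity was read by IMAP fluorescence polarization, where phosphopeptide binding to M(III) nanoparticles raises FP. The 30-minute, 25° C reaction used 100 μM ATP, 100 nM RP7030 substrate and 0.5 nM GST-IRAK-4 in pH 7.2 Tris buffer with MgCl2, DTT and Tween 20.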
On the technique in general: Polarisation of emitted light reports the rotation of a fluorescent probe.
For `CC(C)N1CCC(c2cc(NC(=O)c3cnn4cccnc34)n(-c3ccc(C4CC4)cc3)n2)CC1` [Example 55, N-(1-(4-cyclopropylphenyl)-3-(1-isopropylpiperidin-4-yl)-1H-pyrazol-5-yl)pyrazolo[1,5-a]pyrimidine-3-carboxamide], the 50% inhibitory concentration (IC50) – broadly, the concentration that inhibits the measured activity by half – is less than 0.1 µM.

In the case of `Cc1ccc(-n2nc(C3CCN(S(C)(=O)=O)CC3)cc2NC(=O)c2cnn3cc(C#N)cnc23)nc1` [Example 191, 6-cyano-N-(1-(5-methylpyridin-2-yl)-3-(1-(methylsulfonyl)piperidin-4-yl)-1H-pyrazol-5-yl)pyrazolo[1,5-a]pyrimidine-3-carboxamide], the concentration for half-maximal inhibition (IC50) is less than 0.1 µM.

`CC(C)(CN)c1ccc(-n2nc(C3CCN(S(C)(=O)=O)CC3)cc2NC(=O)c2cnn3cccnc23)nc1` [Example 158, N-(1-(5-(1-amino-2-methylpropan-2-yl)pyridin-2-yl)-3-(1-(methylsulfonyl)piperidin-4-yl)-1H-pyrazol-5-yl)pyrazolo[1,5-a]pyrimidine-3-carboxamide]: the IC50 was less than 0.1 µM.

In the case of `Cc1ccc(-n2nc(C3CCN(CC4CCOC4)CC3)cc2NC(=O)c2cnn3cccnc23)cc1` (stereo not shown) [Example 228, N-{1-(4-methylphenyl)-3-[1-(tetrahydrofuran-3-ylmethyl)piperidin-4-yl]-1H-pyrazol-5-yl}pyrazolo[1,5-a]pyrimidine-3-carboxamide], the IC50 was less than 0.1 µM.

With `O=C(Nc1cc(C2CCN(C3CCC3)CC2)nn1-c1ccc(C2CC2)cc1F)c1cnn2cccnc12` [Example 75, N-(3-(1-cyclobutylpiperidin-4-yl)-1-(4-cyclopropyl-2-fluorophenyl)-1H-pyrazol-5-yl)pyrazolo[1,5-a]pyrimidine-3-carboxamide], the IC50 was less than 0.1 µM.

Staying with this test, now noted: 100 μM ATP, 30 minutes at 25° C.; μM.
On to `Cc1ccc(-n2nc(CC3CCOCC3)cc2NC(=O)c2cnn3cccnc23)cc1` [Example 45, N-(3-((tetrahydro-2H-pyran-4-yl)methyl)-1-(p-tolyl)-1H-pyrazol-5-yl)pyrazolo[1,5-a]pyrimidine-3-carboxamide], for which the half-inhibitory concentration (IC50) is less than 1 µM.

The molecule `Cc1cnc(-n2nc(C3CCN(S(=O)(=O)C4CC4)CC3)cc2NC(=O)c2cnn3cccnc23)nc1` [Example 171, N-(3-(1-(cyclopropylsulfonyl)piperidin-4-yl)-1-(5-methylpyrimidin-2-yl)-1H-pyrazol-5-yl)pyrazolo[1,5-a]pyrimidine-3-carboxamide] showed an IC50 of less than 1 µM.

In the case of `Cc1ccc(-n2nc(C3CCCN(S(=O)(=O)C4CC4)C3)cc2NC(=O)c2cnn3cccnc23)cc1` (stereo not shown) [Example 44, N-(3-(1-(cyclopropylsulfonyl)piperidin-3-yl)-1-(p-tolyl)-1H-pyrazol-5-yl)pyrazolo[1,5-a]pyrimidine-3-carboxamide], the half-maximal inhibitory concentration (IC50) is less than 1 µM.

In turn, `CN1CCC(c2cc(NC(=O)c3cnn4cccnc34)n(-c3ccc(F)cc3F)n2)CC1` [Example 48, N-(1-(2,4-difluorophenyl)-3-(1-methylpiperidin-4-yl)-1H-pyrazol-5-yl)pyrazolo[1,5-a]pyrimidine-3-carboxamide] displayed an IC50 of less than 1 µM.

In the case of `CS(=O)(=O)N1CCC(c2cc(NC(=O)c3cnn4cccnc34)n(-c3nccn3S(C)(=O)=O)n2)CC1` [Example 188, N-(1-(1-(methylsulfonyl)-1H-imidazol-2-yl)-3-(1-(methylsulfonyl)piperidin-4-yl)-1H-pyrazol-5-yl)pyrazolo[1,5-a]pyrimidine-3-carboxamide], the 50% inhibitory concentration (IC50) is more than 1 µM.

These data come from patent publication US9169260B2 (MERCK SHARP & DOHME CORP., priority 2011, dated 2015).
